We go through two molecules from patent US12162855B2, “Tetrahydroquinolino derivatives for the treatment of metastatic and chemoresistant cancers” (THE TRUSTEES OF PRINCETON UNIVERSITY, priority 2018, dated 2024).

The structures appear in SMILES notation.

Data set [1] concerns the target T1, ALDH1a3 (Homo sapiens, UniProt P47895).
T1 construct: lentiviral vectors containing either the vector backbone or full-length human Aldh1a3; expressed in transfected cells; host or cells: SUM159-M1a (A1) and SUM159 (A7) breast cancer cells, lentiviral pLex vector, puromycin selection
T1 sequence (P47895 1-512): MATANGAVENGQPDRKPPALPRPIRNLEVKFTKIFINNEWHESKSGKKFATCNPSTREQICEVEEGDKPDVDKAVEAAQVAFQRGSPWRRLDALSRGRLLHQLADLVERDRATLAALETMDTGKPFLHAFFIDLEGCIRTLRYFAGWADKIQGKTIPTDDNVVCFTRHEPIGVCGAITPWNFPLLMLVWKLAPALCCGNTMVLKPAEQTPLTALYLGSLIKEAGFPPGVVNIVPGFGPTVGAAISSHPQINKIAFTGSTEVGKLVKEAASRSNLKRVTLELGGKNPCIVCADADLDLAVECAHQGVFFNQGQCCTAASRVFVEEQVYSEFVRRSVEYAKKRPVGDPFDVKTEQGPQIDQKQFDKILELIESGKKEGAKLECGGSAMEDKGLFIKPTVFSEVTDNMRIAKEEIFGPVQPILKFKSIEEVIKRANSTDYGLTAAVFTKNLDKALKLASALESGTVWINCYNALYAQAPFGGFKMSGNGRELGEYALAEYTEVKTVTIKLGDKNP
As to the kind of experiment: ALDEFLUOR assay in SUM159 cells expressing ALDH isoforms 1a1, 1a2, 1a3, 3a1. The class given is cell-based. To be noted: SUM159 cells expressing ALDH 1a1, 1a2, 1a3 or 3a1. The protocol:
(§1) The coding sequences of Aldh1a1, Aldh1a2, Aldh1a3 and Aldh3a1 were cloned from cDNA made from pooled human reference RNA samples. Cloned sequences flanked by Age1 and Xho1 restriction sites were inserted into the pLex lentiviral plasmid. Clones were sequenced and compared against NCBI expressed sequence tags (ESTs) for accuracy. Viral production of each enzyme was performed by transfection into the 293T packaging cell line using PEI along with PsPax2 and VSVG packaging vectors. Viruses were collected and filtered at 0.45 μm, then cells were transduced using polybrene (8 μg/mL) for 12 hours, followed by culture with 1 μg/mL puromycin for the duration of experiments. All viral transduction and selection was performed on a cell population-wide basis.
(§2) Cells were counted, centrifuged and resuspended at 1,000,000 cells/mL in ALDEFLUOR™ buffer (Stemcell Technologies). ALDEFLUOR™ substrate (Stemcell Technologies, 1:200) and test compound or 1 mM DEAB were added to cell suspension and incubated at 37° C. for 45 minutes with vortexing every 15 minutes. Cells were centrifuged and resuspended in ALDEFLUOR™ buffer with DAPI at 5 μg/mL. Samples were analyzed with the BD LSR2 flow cytometry platform. Gating was performed using DEAB as a negative control.
ALDH isoforms 1a1, 1a2, 1a3 and 3a1 were expressed in MCF7 or SUM159 cells, which were subsequently used in an ALDEFLUOR™ assay.

The target of data set [2] is T1, ALDH1a3. Nature of the data set: ALDEFLUOR assay in 293T cells transiently transfected with human Aldh1a3. The class given is cell-based. To be noted: 293T cells transfected with human Aldh1a3. As to the method:
as §1, §2

The nature of data set [3]: Toxicity experiments in C57Bl6 mice (IP). The class given is in vivo. As to the method:
All mice were originally ordered from the Jackson Laboratory (Bar Harbor, ME) and breeding was conducted in a specific pathogen-free (SPF) barrier facility. Toxicity experiments were performed on 8-12-week old male and female C57B16 mice. MBE1 was dissolved at 50 mg/mL in DMSO followed by a […] into Kolliphor EL, followed by a 1:5 dilution into PBS to yield a 5 mg/ml MBE1 solution, (10% DMSO, 10% Kolliphor EL, 80% PBS). This was administered via IP injection at ascending doses from 12.5 to 200 mg/kg body mass in a set of 3 mice at 24 h intervals. Body condition score, food uptake, fecal/urine production, behavior and body weight were measured as toxicity readouts. Five mice were then treated every 3 days with 25 mg/kg MBE1 for 18 days.

The target in data set [4] is T2, ALDH1a3 (Homo sapiens, UniProt P47895).
T2 construct: endogenous in cells; host or cells: panel of cancer cell lines (e.g. Sum159-M1a, MDA-MB-468 and others of b212)
T2 sequence (P47895 2-512): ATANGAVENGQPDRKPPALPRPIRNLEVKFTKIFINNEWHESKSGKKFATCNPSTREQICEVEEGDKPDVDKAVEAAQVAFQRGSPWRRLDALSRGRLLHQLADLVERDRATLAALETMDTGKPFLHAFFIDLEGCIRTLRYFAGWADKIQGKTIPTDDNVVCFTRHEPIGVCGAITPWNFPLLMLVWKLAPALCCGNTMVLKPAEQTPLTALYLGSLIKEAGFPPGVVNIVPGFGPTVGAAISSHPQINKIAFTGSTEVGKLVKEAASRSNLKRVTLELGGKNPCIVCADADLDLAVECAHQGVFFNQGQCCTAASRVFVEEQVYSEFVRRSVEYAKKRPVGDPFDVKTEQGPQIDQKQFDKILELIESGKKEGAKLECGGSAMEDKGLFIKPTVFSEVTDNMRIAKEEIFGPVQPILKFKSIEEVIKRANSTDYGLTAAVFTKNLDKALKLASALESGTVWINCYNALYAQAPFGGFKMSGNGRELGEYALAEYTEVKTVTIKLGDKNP
Nature of the data set: ALDEFLUOR assay in cell lines of a variety of cancer types. The class given is cell-based. To be noted: ALDEFLUOR-positive cells, various cancer cell lines.
Description: Cell lines were labeled with retroviral vectors with bi-cistronic expression of GFP/firefly luciferase to facilitate imaging and flow cytometry experiments. All cell lines were verified negative for mycoplasma contamination by monthly PCR analysis. No cells lines used here appear in the database of commonly misidentified cell lines (ICLAC). All cell lines were validated with STR analysis and compared to NCBI repository data.
as §2
A notable exception is liver cancer, where it is expected that a large ALDEFLUOR™-positive population exists, and is driven by ALDH1a1.

Regarding `CCc1ccccc1C(=O)Nc1cc2c(cc1F)NC(=O)CC2` [MBE1.5, 2-ethyl-N-(7-fluoro-2-oxo-1,2,3,4-tetrahydroquinolin-6-yl)benzamide], the “isoform specificity, percentage of ALDEFLUOR-positive SUM159 cells (FIG. 13C)” value on ALDH1a3 [1] is listed as “specifically inhibits ALDH1a3 at concentrations below 10 μM”. For the same molecule, the “inhibition of Aldh1a3 activity (FIG. 2B)” value at ALDH1a3 [2] is listed as “effective at inhibiting Aldh1a3 activity”.
Turning to `CCc1cnccc1C(=O)Nc1cc2c(cc1F)NC(=O)CC2` [MBE1, 3-ethyl-N-(7-fluoro-2-oxo-1,2,3,4-tetrahydroquinolin-6-yl)isonicotinamide], in data set [3] (25 mg/kg every 3 days for 18 days), the “chronic toxicity (body condition score, food uptake, fecal/urine production, behavior, body weight)” value is “Neither experiment showed any indication of either acute or chronic toxicity”. The “acute toxicity (body condition score, food uptake, fecal/urine production, behavior, body weight)” value in data set [3] (ascending doses 12.5 to 200 mg/kg at 24 h intervals) is “Neither experiment showed any indication of either acute or chronic toxicity”. Besides, the “inhibition of ALDH1a3 activity in a variety of cancer types (FIG. 3A)” value on ALDH1a3 [4] is “inhibited by MBE1 in many cancer types”.
